This is an account of results in US12115250B2, “Use of nanoparticles for treating respiratory infections associated with cystic fibrosis” (EVOQ NANO, INC., priority 2019, dated 2024).

One experiment relates to E. coli ATCC #51813. Nature of the experiment: Antibacterial efficacy test, Relative Light Unit (RLU) counts (ATP). Type of experiment: cell-based. The protocol: The NIST nanoparticles are formed by a chemical reduction process that utilizes citrate as reducing and capping agent.
Relative Light Unit (RLU) counts were recorded at 12 hours and 24 hours post treatment. RLU measurements were carried out using a Hygiena SystemSURE Plus V.2 SN067503 RLU meter with Hygenia AquaSnap TOTAL ATP Water Test Cat #U143 Lot #153019. Culturing media was Hardy Diagnostics Buffered Peptone Water Lot #118272. Samples were prepared with the nanoparticle treatments and then diluted with the media to provide the tested concentrations. The test organism (Microbiologics, E. coli, KwikStik, ATCC #51813, Ref #0791 K, Lot #791-1-6) was incubated in fresh Buffered Peptone Water growth media for 24 hours prior to exposure to the nanoparticle treatments.

The nature of experiment [1]: Efficacy test comparing Attostat Ag to tobramycin (colony reduction). The note with it: 4 μg/mL Attostat Ag vs 20 μg/mL tobramycin. Type of experiment: cell-based. As to the method:
Efficacy tests similar to those of Examples 5 and 6 were performed to compare the efficacy of Attostat Ag to tobramycin. […]

For `O=[N+]([O-])[O-].[Ag+]` [AgNO3 Silver Nitrate, silver nitrate], the “RLU Counts at 12 Hours Post Exposure” value in the experiment on E. coli ATCC #51813 (0.25 ppm (mg/L)) worked out at 80 RLU; in the experiment on E. coli ATCC #51813 (0.5 ppm (mg/L)), 75 RLU; with E. coli ATCC #51813 (1.0 ppm (mg/L)), 84 RLU. Also, the “RLU Counts at 24 Hours Post Exposure” value with E. coli ATCC #51813 (0.25 ppm (mg/L)) is recorded as 25 RLU; in the experiment on E. coli ATCC #51813 (0.5 ppm (mg/L)), 46 RLU; in the experiment with E. coli ATCC #51813 (1.0 ppm (mg/L)), 30 RLU.
Consider `NC[C@H]1O[C@H](O[C@H]2[C@H](O)[C@@H](O[C@H]3O[C@H](CO)[C@@H](O)[C@H](N)[C@H]3O)[C@H](N)C[C@@H]2N)[C@H](N)C[C@@H]1O` [tobramycin], for which the “colony reduction, comparison” value in experiment [1] was “equal colony reduction”.
